Measured values published in PMC9898226, “Emergence of a proton exchange-based isomerization and lactonization mechanism in the plant coumarin synthase COSY” (Nature Communications, 2023).

What was measured:
Assay type in all cases: biochemical
StCOSY = target: T1, StCOSY (Solanum tuberosum, UniProt M0ZYT4); experiment: coupled At4CL1 assay, LC-MS of scopoletin; details: substrate made in situ by At4CL1 from 6-hydroxyferulic acid, ATP, CoA, Mg2+; 20 mM HEPES; spontaneous background
T1 sequence (M0ZYT4 1-444): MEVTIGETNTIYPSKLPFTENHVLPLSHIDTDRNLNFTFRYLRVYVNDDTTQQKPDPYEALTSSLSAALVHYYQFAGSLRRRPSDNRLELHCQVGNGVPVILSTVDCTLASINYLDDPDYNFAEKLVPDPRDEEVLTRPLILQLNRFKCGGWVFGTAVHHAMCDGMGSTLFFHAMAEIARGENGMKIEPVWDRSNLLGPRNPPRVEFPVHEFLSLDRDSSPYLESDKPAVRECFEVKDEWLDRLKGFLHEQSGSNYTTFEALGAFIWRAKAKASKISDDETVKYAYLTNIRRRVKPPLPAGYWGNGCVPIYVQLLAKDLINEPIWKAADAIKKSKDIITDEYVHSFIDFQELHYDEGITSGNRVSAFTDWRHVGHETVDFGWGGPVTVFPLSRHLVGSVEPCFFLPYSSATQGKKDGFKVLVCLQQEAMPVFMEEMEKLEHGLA

AtCOSY [1] = target: T2, AtCOSY (Arabidopsis thaliana, UniProt Q8LF28); experiment: coupled At4CL1 assay, LC-MS of scopoletin; details: substrate made in situ by At4CL1 from 6-hydroxyferulic acid, ATP, CoA, Mg2+; 20 mM HEPES; spontaneous background
T2 construct: gene COSY; N-terminal 8xHis tag with TEV site (pHis8-4), tag cleaved; E. coli BL21(DE3); domains 1-181, 182-229, 230-451
T2 sequence (Q8LF28 1-451): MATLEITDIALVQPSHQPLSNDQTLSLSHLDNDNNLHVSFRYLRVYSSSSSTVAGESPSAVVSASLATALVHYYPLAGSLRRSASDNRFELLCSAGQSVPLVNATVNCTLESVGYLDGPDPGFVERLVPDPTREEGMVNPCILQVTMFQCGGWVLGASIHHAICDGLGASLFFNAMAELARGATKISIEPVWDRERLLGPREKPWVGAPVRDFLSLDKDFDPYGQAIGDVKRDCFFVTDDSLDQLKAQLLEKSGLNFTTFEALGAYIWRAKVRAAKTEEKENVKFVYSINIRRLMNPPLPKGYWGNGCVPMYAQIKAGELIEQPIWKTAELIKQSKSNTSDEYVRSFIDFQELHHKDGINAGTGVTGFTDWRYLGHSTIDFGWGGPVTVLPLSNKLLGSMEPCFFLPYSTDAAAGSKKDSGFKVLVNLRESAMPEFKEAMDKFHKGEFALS

SbCOSY = target: T3, SbCOSY (Sorghum bicolor, UniProt C5Z4D6); experiment: coupled At4CL1 assay, LC-MS of scopoletin; details: substrate made in situ by At4CL1 from 6-hydroxyferulic acid, ATP, CoA, Mg2+; 20 mM HEPES; spontaneous background
T3 construct: gene SORBI_3010G043700
T3 sequence (C5Z4D6 1-456): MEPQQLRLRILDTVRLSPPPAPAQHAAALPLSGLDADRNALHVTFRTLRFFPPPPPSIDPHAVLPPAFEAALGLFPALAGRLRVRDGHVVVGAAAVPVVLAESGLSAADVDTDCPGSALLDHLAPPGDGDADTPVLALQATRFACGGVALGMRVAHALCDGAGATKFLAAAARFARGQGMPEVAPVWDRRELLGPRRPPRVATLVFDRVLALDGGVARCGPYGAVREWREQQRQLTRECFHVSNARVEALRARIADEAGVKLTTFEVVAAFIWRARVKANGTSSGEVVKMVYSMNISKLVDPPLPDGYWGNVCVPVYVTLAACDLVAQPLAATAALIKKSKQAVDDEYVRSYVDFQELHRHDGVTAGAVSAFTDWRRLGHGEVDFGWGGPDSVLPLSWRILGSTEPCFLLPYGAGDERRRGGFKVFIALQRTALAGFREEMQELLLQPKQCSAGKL

GmCOSY = target: T4, GmCOSY (Glycine max, UniProt A0A0R0H5A1); experiment: coupled At4CL1 assay, LC-MS of scopoletin; details: substrate made in situ by At4CL1 from 6-hydroxyferulic acid, ATP, CoA, Mg2+; 20 mM HEPES; spontaneous background
T4 construct: gene LOC100817021
T4 sequence (A0A0R0H5A1 1-452): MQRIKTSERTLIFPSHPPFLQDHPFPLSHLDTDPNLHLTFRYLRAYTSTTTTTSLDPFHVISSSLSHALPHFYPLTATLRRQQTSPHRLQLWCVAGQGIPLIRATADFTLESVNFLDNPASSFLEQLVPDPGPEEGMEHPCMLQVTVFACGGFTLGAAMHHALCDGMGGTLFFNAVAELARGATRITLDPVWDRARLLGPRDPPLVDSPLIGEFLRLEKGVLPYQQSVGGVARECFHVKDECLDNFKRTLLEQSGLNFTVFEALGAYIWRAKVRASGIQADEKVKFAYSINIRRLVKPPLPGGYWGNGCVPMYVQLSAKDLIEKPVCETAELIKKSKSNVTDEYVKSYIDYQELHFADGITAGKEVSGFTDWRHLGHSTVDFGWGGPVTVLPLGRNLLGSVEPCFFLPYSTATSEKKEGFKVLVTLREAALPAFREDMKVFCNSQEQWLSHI

AtCOSY [2] = target: T2, AtCOSY; experiment: coupled At4CL1 assay, LC-MS of umbelliferone; details: substrate made in situ by At4CL1 from 2-hydroxy-p-coumaric acid (CAS 614-86-8), ATP, CoA, Mg2+; 20 mM HEPES

Compound	coupled At4CL1 assay, LC-MS of scopoletin (StCOSY)	coupled At4CL1 assay, LC-MS of scopoletin (AtCOSY [1])	coupled At4CL1 assay, LC-MS of scopoletin (SbCOSY)	coupled At4CL1 assay, LC-MS of scopoletin (GmCOSY)	coupled At4CL1 assay, LC-MS of umbelliferone (AtCOSY [2])
COc1cc(/C=C/C(=O)SCCNC(=O)CCNC(=O)[C@H](O)C(C)(C)COP(=O)(O)OP(=O)(O)OC[C@H]2O[C@@H](n3cnc4c(N)ncnc43)[C@H](O)[C@@H]2OP(=O)(O)O)c(O)cc1O [6-hydroxyferuloyl-CoA]	GmCOSY, StCOSY and SbCOSY contain coumarin synthase activity comparable to that of AtCOSY	addition of AtCOSY resulted in significant acceleration of coumarin production	GmCOSY, StCOSY and SbCOSY contain coumarin synthase activity comparable to that of AtCOSY	GmCOSY, StCOSY and SbCOSY contain coumarin synthase activity comparable to that of AtCOSY	
CC(C)(COP(=O)(O)OP(=O)(O)OC[C@H]1O[C@@H](n2cnc3c(N)ncnc32)[C@H](O)[C@@H]1OP(=O)(O)O)[C@@H](O)C(=O)NCCC(=O)NCCSC(=O)/C=C/c1ccc(O)cc1O [2-hydroxy-p-coumaroyl CoA]					addition of AtCOSY resulted in significant acceleration of coumarin production
